From US7125881B2, “Use of pyrimidine—or triazine—2 carbonitiles for treating diseases associated with cysteine prostease activity and novel pyrimidine-2-carbonitile derivatives” (AstraZeneca AB, priority 2002, dated 2006) come the findings set out here.

Counter-ions that a name gives are not always drawn.

What is called melting point is the temperature of the solid-liquid transition. In the case of `CCNc1nc(C#N)nc(Nc2ccc(Cl)cc2)c1N` [Example 53, 5-Amino-4[(4-Chlorophenyl)amino]-6(ethylamino)pyrimidine-2-carbonitrile], the melting point lay within 211 to 212 °C.
As for `COc1c(Nc2ccc(Cl)cc2)nc(C#N)nc1N1CCNC(=O)C1` [Example 49, 4-[(4-Chlorophenyl)amino]-5-methoxy-6(3-oxopiperazin-1-yl)pyrimidine-2-carbonitrile], the figure is 244 °C; as for `COc1c(Nc2ccc(Cl)cc2)nc(C#N)nc1N1CC[C@H](N)C1` (as salt: trifluoroacetate) [Example 46, 4-[(3S)-3-Aminopyrrolidin-1-yl]-6-[(4-chlorophenyl)amino]-5-methoxypyrimidine-2-carbonitrile], 345 to 347 °C; as for `COc1c(Nc2ccc(Cl)cc2)nc(C#N)nc1N1CCNCC1` (as salt: trifluoroacetate) [Example 44, 4-[(4-Chlorophenyl)amino]-5-methoxy-6-piperazin-1-ylpyrimidine-2-carbonitrile], 230 °C.
Take `N#Cc1nc(Nc2ccc(Cl)cc2)c(N)c(N2CCOCC2)n1` [Example 52, 5-Amino-4-[(4-chlorophenyl)amino]-6-morpholin-4-ylpyrimidine-2-carbonitrile]: the melting point is 253 to 254 °C.
The molecule `COc1c(Nc2ccc(Cl)cc2)nc(C#N)nc1N1CCN(CCCN(C)C)CC1` (as salt: trifluoroacetate) [Example 47, 4-[(4-Chlorophenyl)amino]-6-{4-[3-(dimethylamino)propyl]piperazin-1-yl}-5-methoxypyrimidine-2-carbonitrile] came in with a melting point of 210 to 212 °C.
The value for `COc1c(Nc2ccc(Cl)cc2)nc(C#N)nc1N(C)C` [Example 48, 4-[(4-Chlorophenyl)amino]-6-(dimethylamino)5-methoxypyrimidine-2-carbonitrile] was 173 °C.
In turn, `COc1c(Nc2ccc(Cl)cc2)nc(C#N)nc1N1CCOCC1` [Example 45, 4-[(4-Chlorophenyl)amino]-5-methoxy-6-morpholin-4-ylpyrimidine-2-carbonitrile] registered a melting point of 176 °C.
